Measured values reported in patent US20200262877A1, “ION CHANNEL-BINDING PEPTIDES AND METHODS OF USE THEREOF” (priority 2017, published 2020).

Test system: panel of 20 ion channels
Type: cell-based
Conditions: potassium channels of the panel; 0.2 or 20 μM; FIG. 2
Description: This example describes a method for assaying ion channel activity in cells.
Peptides were screened in duplicate at final concentrations of 20 μM and 200 nM, as determined by amino acid analysis, and diluted into HEPES buffered physiological saline (HBPS). HEK293 or CHO cells from the American Type Culture Collection (ATCC) were transfected with the appropriate ion channel before use. HEK293 cells were grown in Dulbecco's Modified Eagle Medium/Nutrient Mixture F-12, and CHO cells were cultured in Ham's F-12 media. All cultures were supplemented with 10% fetal bovine serum, 100 U/ml penicillin G, 100 μg/ml streptomycin sulfate, and the appropriate selection antibiotics. Prior to use, cells were washed twice with Hank's Balanced Salt Solution, and treated with Accutase cell detachment solution (Sigma-Aldrich). Cells were then washed. Peptides and controls were incubated with cells for at least five minutes.
Percent inhibition was defined as: (1-(Ipeptide/Icontrol))×100%).
Percent values were calculated using the following formula: % activation=(IPeptide/Icontrol)×100%, where IPeptide is the current produced by co-application a peptide with agonist, and Icontrol refers to the current produced by stimulation in control. Control used for each ion channel is the reference compound matched to a particular channel, as illustrated in TABLE 10 below.

Row | Sequence | Activity on potassium channels
1 | GSQIDTNVKCSGSSKCVKICIDRYNTRGAKCINGRCTCYP [SEQ ID NO: 20] | showed activity on various subsets of potassium channels
2 | GSVVIGQRCYRSPDCYSACKKLVGKATGKCTNGRCDC [SEQ ID NO: 26] | showed activity on various subsets of potassium channels
